≈ marks a conversion by molar mass, not a printed value.

Experiment [1] has as its system HCMV recombinant mutant virus. In words: microbe, parasite or virus in culture. The note with it: Human betaherpesvirus 5, read-out: IC50 (ug/ml) HCMV. The class given is cell-based, human cytomegalovirus. The text has this: Microtiter plate assay. Ninety-six well plate cultures of human foreskin fibroblasts are infected in the presence of inhibitor compound with a HCMV recombinant mutant virus whose genome contains the prokaryotic beta-glucuronidase gene (Jefferson, R. A., S. M. Burgess, and D. Hirsh. 1986. Beta-glucuronidase from Escherichia coli as a gene fusion marker. Proc. Natl. Acad. Sci. USA 83:8447-8451) whose expression is controlled by a viral promoter. An example of such a virus is RV145 (Jones, T. R., V. P. Muzithras, and Y. Gluzman. 1991. Replacement mutagenesis of the human cytomegalovirus genome: US10 and US11 gene products are nonessential. J. Virol. 65:5860-5872). Since it is under the control of a viral promoter, beta-glucuronidase expression is an indirect indicator of growth and replication of HCMV in this assay. At 96 hours post-infection, the infected cell lysates are prepared (using 50mM sodium phosphate [pH7.0] containing 0.1 % Triton X-100 and 0.1% sarkosyl) and assayed for beta-glucuronidase activity using a substrate for the enzyme which when cleaved yields either a product which can be measured colorimetrically in a spectrophotometer or fluorescently in a microfluorimeter. Examples of such substrates are p-nitrophenyl-beta-D-glucuronide and methylumbelliferylglucuronide, respectively. The presence of an antiviral compound is indicated by the reduced expression of the HCMV genome resident beta-glucuronidase gene, compared to the absence of inhibitor. […] Data from this assay generated using varying amounts of inhibitor compound is also used to estimate the IC50 of an inhibitor compound.

A further experiment concerns HSV-1. In words: HSV antiviral (ELISA) assay in Vero cells. The class given is cell-based, herpes simplex virus type 1. The settings on record: Human alphaherpesvirus 1; HSV-1 in Vero cells; read-out: IC50 (ug/ml) HSV. As to the method:
HSV antiviral (ELISA) assay
Vero cells (ATCC #CCL-81) are plated on 96-well tissue culture plates at 3.5x10^4 cells per 100µl tissue culture DMEM (Dulbecco's modified Eagle media) supplemented with 2% fetal bovine serum (FBS) in each well. After overnight incubation @ 37°C (in 5% CO2) and 30 minutes prior to infection with HSV-1 (multiplicity of infection equal to 0.006), cells are either untreated, or treated with test compound (multiple concentrations) or reference standard drug control. After approximately 24 hours post-infection incubation @ 37°C (in 5% CO2), cells are fixed for ELISA assay. The primary antibody is murine anti-HSV glycoprotein D monoclonal primary antibody and the secondary antibody is goat anti-mouse IgG linked to β-galactosidase. Thus the extent of viral replication is determined by assessing β-galactosidase activity by quantifying the generation of the 4-methyl umbelliferone fluorescent cleavage product after addition of the methyl umbelliferyl-β-D-galactoside (Sigma #M1633) substrate on a microfluorimeter (365nm for excitation and 450nm for emission). Antiviral activity (IC50) of the test compound is determined by comparing the flourescence obtained in absence of compound to that obtained in the presence of compound.
(In general: In an ELISA, binding on a coated surface is turned into a signal by an enzyme label.)

The subject of another experiment is VZV strain Ellen. The experiment is described as follows: VZV antiviral (ELISA) assay in human foreskin fibroblast cells. The note with it: Human alphaherpesvirus 3; VZV strain Ellen in HFF cells; read-out: IC50 (ug/ml) VZV. The class given is cell-based, varicella-zoster virus. On the procedure:
VZV antiviral (ELISA) assay
For the generation of stock VZV to be used in the assay, VZV strain Ellen (ATCC #VR-1367) is used to infect human foreskin fibroblast (HFF) cells at low multiplicity (less than 0.1) and incubated overnight at 37°C in 5% CO2. After the overnight incubation, the mixture of uninfected and VZV-infected HFF infected cells are then harvested and added to each well of 96-well plates (3.5x10^4 cells in 100 µl DMEM supplemented with 2% FBS) which contain test compound or the reference standard drug control (in 100µl DMEM supplemented with 2% FBS per well). These cells are incubated for three days at 37°C in 5% CO2, then fixed for ELISA assay. The primary antibody is murine anti-VZV glycoprotein II monoclonal antibody (Applied Biosystems, Inc. #13-145-100) and the secondary antibody is goat anti-mouse IgG linked to β-galactosidase. Thus the extent of viral replication is determined by assessing β-galactosidase activity by quantifying the generation of the 4-methyl umbelliferone fluorescent cleavage product after addition of the methyl umbelliferyl-β-D-galactoside (Sigma #M1633) substrate on a microfluorimeter (365nm for excitation and 450nm for emission). Antiviral activity (IC50) of the test compound is determined by comparing the flourescence obtained in absence of compound to that obtained in the presence of compound.

Take `CC(NC(=S)Nc1ccc(NC(=O)c2ccccc2F)c(OCc2ccccc2)c1)c1ccc(F)cc1` (stereo not shown) [Example 1051, N-(2-Benzyloxy-4-{3-[1-(4-fluoro-phenyl)-ethyl]-thioureido}-phenyl)-2-fluoro-benzamide]: the IC50 in experiment [1] was above 10 µg/mL; with HSV-1, above 10 µg/mL; in the experiment with VZV strain Ellen it was 0.7 µg/mL (≈ 1.35 µM).

On to `Cc1cc(NC(=S)NC(C)c2ccc(Br)cc2)ccc1NC(=O)c1ccccc1F` (stereo not shown) [Example 1046, N-(4-{3-[1-(4-Bromo-phenyl)-ethyl]-thioureido}-2-methyl-phenyl)-2-fluoro-benzamide], for which the IC50 is 2.8 µg/mL (≈ 5.76 µM) in experiment [1], 6.3 µg/mL (≈ 13 µM) with HSV-1 and 0.057 µg/mL (≈ 0.117 µM) in the experiment on VZV strain Ellen.

With `CC(NC(=S)Nc1ccc(NC(=O)c2ccccc2F)c(C#N)c1)c1ccc(F)cc1` (stereo not shown) [Example 1040, N-(2-Cyano-4-{3-[1-(4-fluoro-phenyl)-ethyl]-thioureido}-phenyl)-2-fluoro-benzamide], the figures for the IC50 (in experiment [1]; with HSV-1; with VZV strain Ellen) were above 10 µg/mL, above 10 µg/mL and 0.05 µg/mL (≈ 0.115 µM), respectively.

Turning to `C[C@H](NC(=S)Nc1ccc(NC(=O)c2cc3ccccc3cn2)c(C(F)(F)F)c1)c1ccc(Br)cc1` [Example 1103, Isoquinline-3-carboxylic acid (4-{3-[(1S)-1-(4-bromo-phenyl)-ethyl]-thioureido}-2-trifluoromethyl-phenyl)-amide], the IC50 turned out to be 5 µg/mL (≈ 8.72 µM) in experiment [1] and 0.12 µg/mL (≈ 0.209 µM) in the experiment on VZV strain Ellen.

`CC(NC(=S)Nc1ccc(NC(=O)c2cc3ccccc3o2)c(C#N)c1)c1ccc(F)cc1` (stereo not shown) [Example 1070, Benzofuran-2-carboxylic acid (2-cyano-4-{3-[1-(4-fluoro-phenyl)-ethyl]-thioureido}-phenyl)-amide]: the IC50 was found to be 2 µg/mL (≈ 4.36 µM) in experiment [1], 4.1 µg/mL (≈ 8.94 µM) in the experiment with HSV-1 and 0.2 µg/mL (≈ 0.436 µM) with VZV strain Ellen.

In the case of `C[C@H](NC(=O)Nc1ccc(NC(=O)c2ccccc2F)c(C#N)c1)c1ccc(F)cc1` [Example 1106, N-{2-cyano-4-[({[(1S)-1-(4-fluorophenyl)ethyl]amino}carbonyl)amino]phenyl}-2-fluorobenzamide], the IC50 is above 10 µg/mL in experiment [1] and 0.014 µg/mL (≈ 0.0333 µM) with VZV strain Ellen.

For the molecule `C[C@H](NC(=S)Nc1ccc(NC(=O)c2ccccc2F)c(C#N)c1)c1ccc(Br)cc1` [Example 1104, N-(4-{3-[(1S)-1-(4-Bromo-phenyl)-ethyl]-thioureido}-2-cyano-phenyl)-2-fluoro-benzamide], the IC50 is above 10 µg/mL in experiment [1] and 0.09 µg/mL (≈ 0.181 µM) with VZV strain Ellen.

Regarding `C[C@H](NC(=S)Nc1ccc(NC(=O)c2ccccc2F)c(C#N)c1)c1ccc(Cl)cc1` [Example 1109, N-{4-[({[(1S)-1-(4-chlorophenyl)ethyl]amino}carbothioyl)amino]-2-cyanophenyl}-2-fluorobenzamide], the IC50 in experiment [1] is above 10 µg/mL; in the experiment on VZV strain Ellen, 0.07 µg/mL (≈ 0.155 µM).

Take `Cc1cc(NC(=O)c2ccccc2F)ccc1NC(=O)N[C@H](C)c1ccc(F)cc1` [Example 1107, 2-fluoro-N-{4-[({[(1R)-1-(4-fluorophenyl)ethyl]amino}carbonyl)amino]-3-methylphenyl}benzamide]: the IC50 in experiment [1] was above 10 µg/mL; in the experiment with VZV strain Ellen, 0.04 µg/mL (≈ 0.0977 µM).

`C[C@H](NC(=S)Nc1ccc(NC(=O)c2ccccc2F)c(C#N)c1)c1ccc(F)cc1` [Example 1108, N-{4-[({[(1S)-1-(4-fluorophenyl)ethyl]amino}carbothioyl)amino]-2-cyanophenyl)-2-fluorobenzamide]: the IC50 is above 10 µg/mL in experiment [1] and 0.03 µg/mL (≈ 0.0687 µM) in the experiment on VZV strain Ellen.

Regarding `CC(NC(=S)Nc1ccc(NC(=O)c2ccccc2F)cc1C(F)(F)F)c1ccc(F)cc1` (stereo not shown) [Example 1102, 2-Fluoro-N-(4-{3-[1-(4-fluoro-phenyl)-ethyl]-thioureido}-3-trifluoromethyl-phenyl)-benzamide], the IC50 in experiment [1] was 5 µg/mL (≈ 10.4 µM); in the experiment with VZV strain Ellen, above 7.5 µg/mL.

As for `C[C@@H](NC(=S)Nc1ccc(NC(=O)c2ccccc2F)c(C#N)c1)c1ccc(Br)cc1` [Example 1105, N-(4-{3-[(1R)-1-(4-Bromo-phenyl)-ethyl]-thioureido}-2-cyano-phenyl)-2-fluoro-benzamide], the results for the IC50 (in experiment [1]; with VZV strain Ellen) were 1.1 µg/mL (≈ 2.21 µM) and above 7.5 µg/mL, respectively.
